Measurements reported in patent publication US20060216779A1, “Method for the detection of post-translational modification activities and device system for carrying out said method” (priority 2003, published 2006).

Tests used:
[1] = measurement of the frequency shift of an oscillator with the peptide sample as core of the induction coil; format: physicochemical; settings: 150 μL sample, 1.14M in water, t=22° C., f0=5342.9 kHz; S2 instead of S1
Description: According to a further variant of the method for the detection of posttranslational activities, the polypeptides (S1) or (S2) dissolved in water and used as substrates are located in a measuring cell with an inductivity of L and a capacitance of C which functions as an oscillator (FIG. 5). The frequency ω can be determined by […] which can be measured to a high degree of accuracy (10^−5).
For the detection of peptide modification through the measurement of the frequency shift of an oscillator, an experiment was carried out as follows:
A tube containing 150 μL of samples with unphosphorylated peptide S1 or phosphorylated peptide S2 (concentration […] in water) was placed as the core in an induction coil of an oscillator. Frequency f was measured at temperature t=22° C., f0=5342.9 kHz.

[2] = measurement of the relative dielectric constant ε of the peptide in water in a measuring capacitor; format: physicochemical; settings: dissolved in water, 1.14 mM, 4 microlitres, t=23° C.
Description: According to further variant for the detection of posttranslational activities, the dielectric constant (permittivity) of a liquid sample with a sensor is measured. As is evident from FIG. 3A, the sample is located in a detection cell (measuring cell 11) serving as a capacitor. The introduction of a polarizing dielectric between the capacitor plates reduces the electric field intensity in vacuum E0 to P/ε0: E=E0−P/ε0 (4) where […] and P is the induced polarization of the dielectric with dielectric constant ε.
The polypeptides (S1) or (S2) dissolved in water have been placed as a dielectric between the electrode plates of the measuring capacitor (measuring cell 11), see FIG. 3A. Polypeptide ELDVPIPGRFDRRVSVAAD (S1) is a specific substrate for protein kinase A which catalyses the phosphorylation of serine. Phosphatase PP2B implements the dephosphorylation of serine of the polypeptide ELDVPIPGRFDRRVpSVAAD (S2). […]
Regarding the detection of peptide modification in tests through the measurement of the relative dielectric constant ε, the following should be added: four microlitres of samples, each containing the polypeptide S1 (unphosphorylated) or S2 (phosphorylated) (table 1), dissolved in water to a concentration of 1.14 mM, are directly introduced between the electrode plates of a measuring capacitor. The dielectric constant ε is measured at a temperature of t=23° C. […]

oscillator frequency change [1] | Substance | dielectric constant ε [2]
distinct reduction in frequency | ELDVPIPGRFDRRVpSVAAD [Sensor S2] | 70
– | ELDVPIPGRFDRRVSVAAD [Sensor S1, synthesized polypeptide sensor, specific substrate for protein kinase A] | 76
